The source of these data is patent publication US10844118B2, “Treatment of inflammatory skin disease” (CHILDREN'S MEDICAL CENTER CORPORATION, priority 2013, dated 2020).

“Also recorded” adds a separate entry of the source.

Test [1] has as its target T1, CD1a (Homo sapiens, UniProt P06126). Description: urushiol-induced contact dermatitis (poison ivy) in CD1a-transgenic mice. It counts as in vivo, mouse. Also noted: expressed in transfected cells; host or cells: CD1a-transgenic mice (compared with wild-type B6 mice). An excerpt: Next, we wanted to explore the function of CD1a in the in vivo response to urushiol. However, CD1a is mainly expressed in humans, and absent in experimental mice. Therefore, in vivo studies investigating CD1a function were not possible in the past. Therefore, we used mice transgenic for human CD1a to overcome that obstacle. FIG. 2A depicts the experimental set-up to investigate the skin immune response to poison ivy. Accordingly, CD1a-transgenic mice compared to wild-type (WT) mice were sensitized with urushiol on the abdomen following the epicutaneous route. Five days later, mice were challenged on the ear skin, prior to harvesting of inflamed ears and draining lymph nodes 48 h after challenge. […] Subsequently, we isolated the inflammatory cells from the ears, using in vitro enzyme digestion of ear tissues, prior to staining for neutrophils and T lymphocyte subsets.
In parallel, we also determined the cytokine profile of the T cells infiltrating the inflamed skin. Accordingly, we performed intracellular cytokine staining for IFN-γ, IL-17, and IL-22, prior to analysis by flow cytometry. […] IL-17 is known to mediate the recruitment of neutrophils, and IL-22 acts on epithelial cells to trigger their hyperproliferation, both cardinal features of skin inflammation.
Based on our findings that CD1a promotes skin inflammation, we next aimed at developing a therapeutic strategy to target CD1a in order to abrogate skin disease. To this end, we used an experimental blocking antibody to CD1a for intraperitoneal injection of mice. The treatment schedule included five injections of 100 μg anti-CD1a starting one day prior to sensitization with urushiol and followed by injections every other day until challenge and tissue harvest. […] To control for the efficiency of antibody treatment, we stained ear cells for CD1a, the crucial surface marker of Langerhans cells. […] Moreover, we investigated the impact of anti-CD1a treatment on the abundance of IL-17-producing CD4 T cells (also called Th17 cells). […] Taken together, we provide the proof of principle that anti-CD1a therapy abrogates skin inflammation.
Target sequence in this assay (P06126 17-327): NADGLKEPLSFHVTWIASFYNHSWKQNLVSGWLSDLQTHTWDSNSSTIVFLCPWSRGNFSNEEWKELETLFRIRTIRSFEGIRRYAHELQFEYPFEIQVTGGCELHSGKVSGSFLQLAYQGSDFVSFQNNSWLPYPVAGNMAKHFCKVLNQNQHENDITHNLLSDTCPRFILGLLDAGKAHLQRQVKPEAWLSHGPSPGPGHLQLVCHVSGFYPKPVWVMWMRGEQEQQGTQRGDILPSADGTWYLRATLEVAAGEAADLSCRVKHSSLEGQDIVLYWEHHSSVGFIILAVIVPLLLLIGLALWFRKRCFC
Target sequence in this assay (P01887 21-119 partner): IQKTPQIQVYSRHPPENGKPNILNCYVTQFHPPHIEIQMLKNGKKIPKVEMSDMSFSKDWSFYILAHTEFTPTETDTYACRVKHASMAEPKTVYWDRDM

The target of test [2] is T1, CD1a. Description: plate-bound binding assay, purified urushiol and recombinant CD1a. The following applies: plate coated with lipid, biotinylated CD1a, streptavidin-peroxidase; compared to positive control sulfatide. An excerpt: Central to our invention is the discovery that CD1a expressed on Langerhans cells is able to mediate skin inflammation through the induction of CD1a-restricted T cells. Accordingly, T cells stimulated by CD1a produce inflammatory cytokines such as interferon (IFN) gamma and IL-17 that facilitate the development of inflammatory skin disease (FIG. 1A). The CD1a-mediated mechanism holds true for diverse skin diseases, including poison ivy contact dermatitis as well as psoriasis. […] For this purpose, we performed a plate-bound binding assay, using purified urushiol and recombinant CD1a. After coating the microtiter plates with urushiol or the known CD1a ligand sulfatide as positive control, plates were washed and subsequently incubated with biotinylated CD1a. Following incubation with streptavidin-peroxidase and the respective chromogenic enzyme substrate, optical density was measured indicating binding efficiency. […] Thus, urushiol from poison ivy is a ligand for CD1a.
Target sequence in this assay (P06126 17-300 limits assumed): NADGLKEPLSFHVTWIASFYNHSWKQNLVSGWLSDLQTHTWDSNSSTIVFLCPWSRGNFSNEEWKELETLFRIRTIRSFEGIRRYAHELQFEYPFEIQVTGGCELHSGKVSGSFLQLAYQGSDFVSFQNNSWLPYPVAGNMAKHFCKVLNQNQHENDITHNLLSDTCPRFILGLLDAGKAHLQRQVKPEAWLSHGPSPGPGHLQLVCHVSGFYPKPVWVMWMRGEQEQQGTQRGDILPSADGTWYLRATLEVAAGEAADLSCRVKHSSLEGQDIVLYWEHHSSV
Target sequence in this assay (P61769 21-119 partner): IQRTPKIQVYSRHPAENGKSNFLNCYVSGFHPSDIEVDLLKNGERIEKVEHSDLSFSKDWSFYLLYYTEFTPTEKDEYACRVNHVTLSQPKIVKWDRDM

Test [3] addresses T1, CD1a. Description: MC903-induced atopic dermatitis model in CD1a-transgenic mice. On the set-up: expressed in transfected cells; host or cells: CD1a-transgenic mice (compared with wild-type B6 mice). It counts as in vivo. The following applies: MC903 daily on ears, CD1a-transgenic mice compared to WT B6 controls. An excerpt: Atopic dermatitis is an inflammatory skin disease characterized by itchy and relapsing eczematous skin lesions. It affects approximately 30% of children and 10% of adults, costing up to $3.8 billion annually in the United States. The cause of atopic dermatitis remains unclear, and there is no cure available. Recently, it has been reported that IL-22-producing CD4 T cells are associated with initiation and progression of atopic dermatitis. Therefore, it is worthwhile to test whether anti-CD1a therapy can be extended to atopic dermatitis. For this purpose, we set up a mouse model of atopic dermatitis applying MC903 (calcipotriol, Vitamin D analogue) daily on the ears of experimental mice, which triggers atopic dermatitis-like skin inflammation characterized by red, scaly, and eczematous lesions. […] Furthermore, anti-CD1a Ab injection suppressed ear swelling and granulocyte infiltration in CD1a-transgenic mice.
The inventors tested the contribution of CD1a presence in MC903-induced atopic dermatitis. The vitamin D3 analogue MC903 was used to induce AD-like symptoms in wild-type (WT-B6) mice, CD1a transgenic mice, and CD1a transgenic mice that were treated with an anti-CD1a Ab. For CD1a blocking, 200 μg of anti-CD1a Ab was intraperitoneally injected into CD1a-transgenic mice every other day (−1, +1, +3, +5, and +7 days before and after MC903 treatment).
Target sequence in this assay (P06126 17-327): as the sequence (P06126 17-327) above
Target sequence in this assay (P01887 21-119 partner): as the sequence (P01887 21-119 partner) above

Test [4] deals with T1, CD1a. Description: OCTET Bio-Layer Interferometry CD1a-lipid ligand binding assay. The conditions noted are these: recombinant CD1a coupled to a biosensor, incubated with lipid ligand. An excerpt:
In order to develop a small molecule inhibitor against CD1a, a CD1a binding assay as a platform can be used to test potential inhibitors from a chemical compound library. For this purpose, we have already established a read-out using the OCTET machine (from FORTEBIO) to measure the molecular interaction between CD1a and lipid ligands with high sensitivity. […] However, the great advantage of the OCTET is its straightforward assay set-up, and that it is amenable to high throughput screening using a 384-well plate format. Accordingly, we use recombinant CD1a molecules coupled to a biosensor, prior to incubation with the known lipid ligand sulfatide. […] In a next step, use pools of small organic molecules derived from a chemical compound library are tested by adding them to the CD1a-sulfatide binding assay. Subsequently, one can measure whether a small molecule candidate is able to inhibit the interaction between CD1a and its ligand.
Target sequence in this assay (P06126 17-300 limits assumed): as the sequence (P06126 17-300 limits assumed) above
Target sequence in this assay (P61769 21-119 partner): as the sequence (P61769 21-119 partner) above

The target of test [5] is T1, CD1a. Description: imiquimod (IMQ) psoriasis model in CD1a-transgenic mice. The test is classed as in vivo, mouse. Also noted: expressed in transfected cells; host or cells: CD1a-transgenic mice (compared with wild-type B6 mice). An excerpt: Therefore, we subsequently investigated whether CD1a also plays an important role in psoriasis. For this purpose, we used a well-established model applying the small molecule imiquimod (IMQ) to the skin of mice, which induces psoriasis-like pathology after 3-6 days of daily administration. Strikingly, CD1a-transgenic mice responded with extensive ear swelling when compared to WT controls (FIG. 5A).
In order to test whether anti-CD1a therapy is able to abrogate skin inflammation in psoriasis, we performed IMQ treatment of mice and administered anti-CD1a antibody in parallel as described above. […] Of note, anti-CD1a therapy blocked the infiltration of IL-17 producing CD4 T cells.
Target sequence in this assay (P06126 17-327): as the sequence (P06126 17-327) above
Target sequence in this assay (P01887 21-119 partner): as the sequence (P01887 21-119 partner) above

The subject of the next test is CD1a-transgenic mice. As to the kind of experiment: DNFB hapten sensitization and challenge in CD1a-transgenic mice. The test is classed as in vivo. An excerpt: Finally, we wanted to examine whether CD1a-transgenic mice are generally prone to increased inflammatory responses. To this end, we treated mice with the well-established hapten DNFB (dinitrofluorobenzene). FIG. 7A depicts the skin sensitization and challenge schedule used for DNFB and urushiol application. […] It is well known that haptens like DNFB induce a prominent IFN-γ response, as we observed in WT mice (FIG. 7D). […] By contrast, the classical delayed type hypersensitivity (DTH) response to DNFB was rather decreased in the presence of CD1a. This underlines the specific nature of CD1a function in urushiol-induced contact dermatitis and psoriasis.

Where [6] appears, read: intracellular cytokine staining, flow cytometry.

In the case of urushiol, the “ear swelling (ear thickness)” value on CD1a [1] (2 days after urushiol challenge, CD1a-transgenic mice compared to WT controls) is “drastically increased”. The “CD4+αβ T cells in urushiol-challenged skin” value at CD1a [1] (CD1a-dependent fashion) is “expanded”. Moreover, the “frequency of Th17 cells” value on CD1a [1] (CD1a-transgenic mice challenged with urushiol) is listed as “drastically increased”. For the same compound, on CD1a [1] (setting [6]), the “IFN-γ response of T cells infiltrating the inflamed skin” value is listed as “failed to induce”; the “cytokine profile of T cells responding to challenge” value was “mainly produced the cytokines IL-17 and IL-22”. The “neutrophil infiltration (Gr-1, CD11b), flow cytometry” value on CD1a [1] (urushiol-challenged ears, CD1a-transgenic mice vs WT) was “striking increase”. For the same compound, the “binding to CD1a (optical density)” value on CD1a [2] is reported as “specific binding; also recorded: interacts as a ligand”.

As to `C=C1/C(=C\C=C2/CCC[C@]3(C)[C@@H]([C@H](C)/C=C/[C@@H](O)C4CC4)CC[C@@H]23)C[C@@H](O)C[C@@H]1O` [MC903, calcipotriol], on CD1a [3], the “Gr1+CD11b+ granulocyte infiltration” value is “significantly amplified” and the ear swelling entry was “significantly amplified”.

On to sulfatide, for which the “binding curves, molecular interaction with CD1a” value at CD1a [4] is “sensitive and specific binding curves”.

Regarding `CC(C)Cn1cnc2c(N)nc3ccccc3c21` [imiquimod], the ear swelling result at CD1a [5] (IMQ on skin, CD1a-transgenic mice compared to WT controls) is “extensive”. In addition, on CD1a [5] (IMQ, CD1a-transgenic mice), the “Gr-1+CD11b+ neutrophils and αβ T cells in the skin, flow cytometry” value was “dramatic increase”; the “cytokine profile of inflammatory T cells” value is “mainly consisted of CD4 T cells producing IL-17 and IL-22”.

For `O=[N+]([O-])c1ccc(F)c([N+](=O)[O-])c1` [DNFB, 2,4,-dinitro-1-fluorobenzene], the “T cell-derived IFN-γ” value in the test with CD1a-transgenic mice (CD1a-transgenic animals, response biased towards IL-17) is on record as “significantly reduced”. Moreover, the “abundance of inflammatory granulocytes, flow cytometry” value in the test on CD1a-transgenic mice (CD1a-transgenic mice) was “strikingly reduced”. Also, the “ear swelling (inflammation)” value in the test on CD1a-transgenic mice (CD1a-transgenic mice, in contrast to poison ivy challenge) was “reduction”. Besides, the IFN-γ response result in the test with CD1a-transgenic mice (WT mice) was “prominent”.
